Assay results as given in article PMC9063426, “MAP kinases differentially bind and phosphorylate NOS3 via two unique NOS3 sites” (FEBS Open Bio, 2022).
“Also recorded” adds a separate entry of the source. Values belong to the molecule of their own block, whether it stands above or below them. Where a SMILES comes first, the peptide text is derived from it. Where no end group is shown, it is not given here.

Assays:
JNK1α1 = target: T1, JNK1α1 (Homo sapiens, UniProt P45983); test: BLI binding of biotinylated NOS3 peptides to JNK1α1; conditions: for Kd / koff / kon: BLI, global one-state fit; for Kd: inactive (unphosphorylated) JNK1α1 31-1000 nM, biotinylated peptide ligand, 25 °C, PBS, 10% glycerol, 0.005% tween, 1 mM DTT; for koff / kon: inactive JNK1α1, 25 °C, PBS buffer; for binding of phosphopeptide: BLI sensorgram, kinase analyte JNK1α1
T1 construct: GST; host or cells: E. coli BL21(DE3) pLysS
Experimental: (§1) Biolayer interferometry (BLI) experiments were performed on a FortéBio (Menlo Park, CA) Octet QK biosensor using streptavidin (SA) sensors. Assays were performed in opaque 96‐well microplates at 25 °C. All volumes were 200 μL. Active GST‐JNK1α1 (SignalChem) was biotinylated by amine crosslinking to NHS‐LC‐LC‐biotin (succinimidyl‐6‐[biotinamido]‐6‐hexanamidohexanoate) (Thermo Fisher, Waltham, MA, USA). Reactions were performed at a 5 : 1 molar ratio of biotin to protein for 30 min at room temperature followed by separation of protein from free biotin by passage over a desalting column. Biotinylated JNK1α1 was loaded onto sensors for 300 s, which was sufficient to saturate them. Baseline was established by dipping sensors into binding buffer (50 mM Tris, pH 7.4, 10 mM NaCl, 10% glycerol, 0.01% Tween‐20) prior to moving sensors to wells containing varying concentrations of serially diluted NOS3 in the same buffer. Association was measured for 300 s, after which sensors were moved to wells containing buffer only and dissociation was monitored for another 300 s. Raw data were normalized for baseline drift by subtracting signal from a ligand‐saturated sensor exposed to buffer only throughout the experiment and then iteratively fit to a one‐state global association‐then‐dissociation binding model using GRAPHPAD Prism. Total binding was used for analysis as nonspecific binding measured by exposing sensors without ligand to analyte was negligible at all NOS3 concentrations used; that is, total binding was effectively specific binding due to very low nonspecific binding.
(§2) For peptide binding experiments, N‐terminally biotinylated peptides (Biomatik) (Table 1) in PBS with 10% glycerol, 0.005% tween, and 1 mM DTT were loaded onto SA sensors as above. After establishing baseline, sensors were exposed to serial dilutions of analyte MAP kinases ranging from 31 to 1000 nM. Peptide experiments were performed using parameters identical to the protein ligand experiments excepting the buffer was PBS with 10% glycerol, 0.005% tween, and 1 mM DTT throughout.
(§3) We tested both hypothesized interaction sites and the impact of nearby phosphorylation sites using: (a) a nonphosphorylated peptide corresponding to the putative NtMAP site (Fig. 1); (b) the identical peptide with S114 phosphorylated; (c) a nonphosphorylated peptide corresponding to the AI loop site; and (d) an identical peptide phosphorylated at the position corresponding to S633. The resultant sensorgrams are shown in Fig. 4 fit to global one‐state binding models to determine binding parameters. While there are complexities present in the data (see Discussion), a one‐state models fit very well to all peptide‐kinase curves. All three kinases bound both unphosphorylated peptides with submicromolar affinity that in most cases approximated the affinity observed for full‐length NOS3 reported above and in our prior report.

p38α = target: T2, p38α (Homo sapiens, UniProt Q16539); test: BLI binding of biotinylated NOS3 peptides to p38α; conditions: for koff / kon: BLI, inactive p38α, 25 °C, PBS buffer, global one-state fit; for binding of phosphopeptide: BLI sensorgram, kinase analyte p38α
T2 construct: His; made in house; host or cells: E. coli BL21(DE3) pLysS
Experimental: as §1, §2, §3

ERK2 = target: T3, ERK2 (Rattus norvegicus, UniProt P63086); test: BLI binding of biotinylated NOS3 peptides to ERK2; conditions: for Kd / koff / kon: BLI, global one-state fit; for Kd: inactive (unphosphorylated) ERK2 31-1000 nM, biotinylated peptide ligand, 25 °C, PBS, 10% glycerol, 0.005% tween, 1 mM DTT; for koff / kon: inactive ERK2, 25 °C, PBS buffer; for binding of phosphopeptide: BLI sensorgram, kinase analyte ERK2
T3 construct: His; host or cells: E. coli BL21(DE3) pLysS
Experimental: as §1, §2, §3

NOS3 [1] = test: TCSPC fluorescence lifetime, conformation of NOS3; conditions: FMN excited at 473 nm, detected at 525 nm
Experimental: Time‐resolved intensity decays were recorded using time‐correlated single‐photon counting fluorescence lifetime spectrometry (TCSPC FLT) to determine whether phosphorylation by JNK1α1 changes the conformation of NOS3.

NOS3 [2] = test: NOS3 phosphorylation status in HMEC-1 cells; format: cell-based, human; conditions: data not shown
Experimental: Human microvascular endothelial cells (HMEC‐1) (CRL‐3243, ATCC) were cultured in MCDB131 medium. HMEC‐1 cells were maintained as described by the ATCC in MCDB131 supplemented with 10% FBS, 1 µg·mL^−1 Hydrocortisone, 10 mM Glutamine, and 10 ng·mL^−1 Epidermal Growth Factor under an atmosphere of 5% CO2 at 37 °C.

NOS3 [3] = test: Oxyhemoglobin assay of NO production by kinase-treated NOS3; format: biochemical, human; conditions: oxyHb assay, 2.5 µM NOS3 with ERK2 14 nM (N = 10), p38α 14 nM (N = 4), JNK1α1-GST 63 nM (N = 3) or PKA 14 nM (N = 4), 30 min; versus untreated NOS3
Experimental: (§4) Active (HIS‐NOS3) was incubated alone or with individual kinases (ERK2, p38α, JNK1α1, and PKA) in 100 µL reaction buffer (20 mM HEPES, 0.5 mM DTT, 5 mM MgCl2, 0.5 mM ATP, and 10% glycerol at a pH of 7.4). The reactions were performed at 22‐25 °C for up to 1 h, and for the examination of nitric oxide activity, samples were incubated on ice for the immediate detection of NO via the oxyhemoglobin to methemoglobin assay (see below). For immunoblotting analysis to examine phosphorylation, kinase samples were quenched with 2× sample buffer spiked with 25 mM DTT and heated to 95 °C for 5 min. Boiled samples (at equal volumes) were electrophoresed and transferred to PDVF for immunoblot staining.
The oxyhemoglobin assay (oxyHb assay) is a spectroscopic method that measures the oxidative reaction of oxyhemoglobin at 421 nm (oxyHb) and methemoglobin (metHb) at 401 nm. Kinase assay reactions quenched on ice were used to measure NO synthesis and consumption. All oxyHb reactions were performed at 25 °C in a BioTek 96‐well UV‐visible spectrophotometer. Each reaction (100 µL total volume) was mixed with 40 µL of reaction buffer (1 μM FAD, 1 μM FMN, 10% glycerol, 12 nM BH4, 100 μM L‐arginine, 10 mM Tris/HCl, pH 7.5 at 25°, 250 μM CaCl2, 0.20 mg·mL^−1 BSA, 0.31 mg Hemoglobin, 7–10 U Superoxide Dismutase, 7–10 U Catalase, and 17 μg Calmodulin) and up to 40 µL (6–10 µg) of phosphorylated NOS3. Absorbance at 401 nm and 421 nm were read for 1 m at 15‐s intervals. To initiate the reaction, 20 µL of 200 mM NADPH reconstituted in Tris/HCl (1.4 M pH 7.5 at room temperature) was added. Measurements were recorded for 10 min at 15‐s intervals.
To calculate NOS3 activity, the change in absorbance/unit time was divided by the extinction coefficient (ε401‐421 = 77 200 M ^−1cm^−1 (ε401 = 38 600 M ^−1cm^−1)). This yielded NOS3 activity in units of molar change/unit time. Activity of kinase exposed NOS3 was compared to the NOS3 control activity (comparably treated NOS3 but not phosphorylated), and the data are presented as a percent of the control NOS3.

NOS3 [4] = conditions: full-length NOS3; previously reported; ref [4]; cited from earlier work
Description: While there is substantial nonspecific binding inherent in the NOS1 sample, it is quite clear that there is no observable specific binding. […] This was not surprising since others have qualitatively shown an interaction between NOS3 and JNK [10] and the MAP kinases have similarities in the requirements of binding to activators and substrates. Lack of binding to NOS1 by all three MAP kinases examined thus far strengthens the interpretation that NOS3 is a node for MAP kinase signaling, while NOS1 and NOS2 are not.

NOS3 [5] = conditions: previous report, different (SignalChem GST) ERK2, bovine NOS3; ref [6]; cited from earlier work
Experimental: Portions of the NOS3 phosphorylation assays were analyzed for nitric oxide production, using PKA as a positive control. […] It is important to note that we cannot interpret the degree of NOS3 phosphorylation, just that NOS3 was phosphorylate ...

NOS3 [6] = conditions: earlier work, ERK2-treated NOS3; ref [6]; cited from earlier work
NOS1 = conditions: previous studies; ref [4]; cited from earlier work
Description: While there is substantial nonspecific binding inherent in the NOS1 sample, it is quite clear that there is no observable specific binding. […] The NOS1 isoform lacks the pentabasic sequence in the autoinhibitory loop that we hypothe ...

NOS3 [7] = test: In vitro kinase assay with NOS3, phospho-specific immunoblotting; format: biochemical, human; conditions: active kinases with NOS3, 5 and 60 min; for phosphorylation of NOS3 at S114: immunoblot with anti-pS114; for phosphorylation of NOS3 at S600: immunoblot with anti-pS600
Experimental: as §4
All samples were loaded at equal volumes on 3–8% gradient tris‐acetate gels. All gels were transferred to PVDF membranes and transferred for either 2 h at 40V or for 20V overnight. Membranes were blocked with one block (Li‐Cor Biosciences) for 30 m and incubated with respective antibodies (at manufacturers recommend concentrations for immunoblotting, 1 : 500 for the anti‐pS600‐NOS3) overnight at 4 °C. Blots were brought to RT for 30 m and washed 3× with 1X TBST for 10 m, probed with a fluorometric secondary antibody (Li‐Cor IRDye®) for 1 h, and washed before visualizing with a Li‐Cor Odyssey.

T3 sequence (P63086 whole entry): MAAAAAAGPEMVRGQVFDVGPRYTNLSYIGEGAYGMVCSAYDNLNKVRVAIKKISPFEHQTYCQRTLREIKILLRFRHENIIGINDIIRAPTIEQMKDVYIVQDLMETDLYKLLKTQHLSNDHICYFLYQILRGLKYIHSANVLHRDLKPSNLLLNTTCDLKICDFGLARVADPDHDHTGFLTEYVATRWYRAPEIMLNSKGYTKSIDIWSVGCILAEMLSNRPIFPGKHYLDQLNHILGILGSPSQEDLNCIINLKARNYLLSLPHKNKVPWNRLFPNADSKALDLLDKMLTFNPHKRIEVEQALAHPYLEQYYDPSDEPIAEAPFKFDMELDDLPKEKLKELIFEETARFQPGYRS
T1 sequence (P45983 1-384 isoform P45983-2, species assumed): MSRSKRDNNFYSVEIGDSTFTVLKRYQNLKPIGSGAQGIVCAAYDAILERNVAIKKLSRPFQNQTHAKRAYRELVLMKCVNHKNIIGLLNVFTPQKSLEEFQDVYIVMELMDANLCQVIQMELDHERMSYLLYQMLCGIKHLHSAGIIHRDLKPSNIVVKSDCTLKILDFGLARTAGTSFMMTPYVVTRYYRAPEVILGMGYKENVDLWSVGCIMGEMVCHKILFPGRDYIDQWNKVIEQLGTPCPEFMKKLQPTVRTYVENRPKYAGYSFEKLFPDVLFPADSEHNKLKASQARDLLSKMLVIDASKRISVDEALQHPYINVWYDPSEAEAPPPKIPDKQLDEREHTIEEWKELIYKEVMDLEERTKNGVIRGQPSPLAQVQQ
T2 sequence (Q16539 whole entry): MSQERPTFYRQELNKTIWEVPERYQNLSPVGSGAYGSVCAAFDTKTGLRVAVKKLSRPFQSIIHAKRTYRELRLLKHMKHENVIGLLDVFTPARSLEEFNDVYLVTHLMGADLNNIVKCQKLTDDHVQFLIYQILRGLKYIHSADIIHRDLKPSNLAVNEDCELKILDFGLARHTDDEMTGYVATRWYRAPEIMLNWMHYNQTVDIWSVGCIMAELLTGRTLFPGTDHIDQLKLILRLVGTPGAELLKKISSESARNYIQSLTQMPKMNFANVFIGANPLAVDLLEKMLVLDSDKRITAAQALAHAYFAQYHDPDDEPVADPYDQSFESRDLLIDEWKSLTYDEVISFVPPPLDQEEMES

- Kd (JNK1α1): 38 nM
- koff (JNK1α1): 0.00054 s⁻¹
- kon (JNK1α1): 14100 M⁻¹ s⁻¹
- koff (p38α): 0.00053 s⁻¹
- kon (p38α): 17300 M⁻¹ s⁻¹
- Kd (ERK2): 940 nM
- koff (ERK2): 0.00623 s⁻¹
- kon (ERK2): 6600 M⁻¹ s⁻¹
Molecule: CC(C)C[C@H](NC(=O)[C@H](CS)NC(=O)[C@H](CCCNC(=N)N)NC(=O)[C@H](CCCNC(=N)N)NC(=O)[C@@H]1CCCN1C(=O)[C@@H](NC(=O)[C@@H](N)CS)[C@@H](C)O)C(=O)NCC(=O)N[C@@H](CO)C(=O)N[C@@H](CC(C)C)C(=O)N[C@H](C(=O)N[C@@H](Cc1ccccc1)C(=O)N1CCC[C@H]1C(=O)N[C@@H](CCCNC(=N)N)C(=O)N[C@@H](CCCCN)C(=O)N[C@@H](CC(C)C)C(=O)N[C@@H](CCC(N)=O)C(=O)NCC(=O)N[C@@H](CCCNC(=N)N)C(=O)N1CCC[C@H]1C(=O)N[C@@H](CO)C(=O)N1CCC[C@H]1C(=O)NCC(=O)N1CCC[C@H]1C(=O)N1CCC[C@H]1C(=O)N[C@@H](C)C(=O)O)C(C)C [NtMAP] (H-CTPRRCLGSLVFPRKLQGRPSPGPPA-OH)

- binding of phosphopeptide (JNK1α1): negligible binding
- binding of phosphopeptide (p38α): negligible binding
- binding of phosphopeptide (ERK2): negligible binding
Molecule: CTPRRCLGSLVFPRKLQGRPS*PGPPA [NtMAP with phosphorylated S114, NtMAP peptide with S114 phosphorylated]

Molecule: Calmodulin [reference compound]
- conformation of NOS3 (fluorescence decay) (NOS3 [1]; NOS3 holoenzyme): produced a change in conformation indicative of active NOS3
- conformation of JNK1α1-treated NOS3 (fluorescence decay) (NOS3 [1]; calmodulin on JNK1α1-treated NOS3): produced the same degree of shift (activation) in JNK1α1‐treated NOS3

Molecule: Epidermal Growth Factor [EGF]
- NOS3 phosphorylation status (NOS3 [2]): altered NOS3 phosphorylation status

- binding of phosphopeptide (JNK1α1): negligible binding
- binding of phosphopeptide (p38α): negligible binding
- binding of phosphopeptide (ERK2): negligible binding
Molecule: YKIRFNSISCSDPLVSSWRRKRKES*SNTDSA [AI with phosphorylated S633, AI loop peptide phosphorylated at the position corresponding to S633]

- Kd (JNK1α1): 3 nM
- koff (JNK1α1): 0.00025 s⁻¹
- kon (JNK1α1): 84600 M⁻¹ s⁻¹
- koff (p38α): 0.00096 s⁻¹
- kon (p38α): 15900 M⁻¹ s⁻¹
- Kd (ERK2): 170 nM
- koff (ERK2): 0.002 s⁻¹
- kon (ERK2): 12100 M⁻¹ s⁻¹
Molecule: YKIRFNSISCSDPLVSSWRRKRKESSNTDSA [AI]

Molecule: cAMP‐dependent protein kinase [PKA, reference compound]
- NO production / NOS3 activity (NOS3 [3]): increased production of NO; also recorded: increased activity

Molecule: insulin: insulin, treatment of HMEC-1 cells
- NOS3 phosphorylation status (NOS3 [2]): altered NOS3 phosphorylation status

Molecule: mitogen‐activated protein kinase 1 [ERK2]
- NO production / NOS3 activity (NOS3 [3]): do not significantly change NO production; also recorded: did not alter in vitro NOS3 activity
- Kd (NOS3 [4]): 160 nM
- inhibition of NOS3 activity (NOS3 [5]): approximately 50%
- conformation of NOS3 (NOS3 [6]): presented an altered conformation from untreated NOS3
- binding to NOS1 (NOS1): no binding to NOS1
- phosphorylation of NOS3 at S114 (NOS3 [7]): did not meaningfully phosphorylate S114 when compared to JNK1α1 and p38α
- phosphorylation of NOS3 at S600 (NOS3 [7]): at S600; also recorded: phosphorylates S600; also recorded: robust when compared to JNK1α1

Molecule: mitogen‐activated protein kinase 14 [p38α]
- NO production / NOS3 activity (NOS3 [3]): do not significantly change NO production; also recorded: did not alter in vitro NOS3 activity
- Kd (NOS3 [4]): 80 nM
- binding to NOS1 (NOS1): no binding to NOS1
- phosphorylation of NOS3 at S114 (NOS3 [7]): phosphorylates both residues; also recorded: easily detected when compared to ERK2
- phosphorylation of NOS3 at S600 (NOS3 [7]): phosphorylates both residues; also recorded: robust when compared to JNK1α1
